Counter-ions that a name gives are not always drawn.
Legend:
ATGL = conditions: expressed ATGL (Jenkins 2004) or native ATGL in hepatocytes (Chung 2008); cited from earlier work
[1] = Water solubility of the hydrochloride; assay type: physicochemical; conditions: hydrochloride obtained as colourless oil
Protocol: (§1) As some compounds are not readily soluble in water, it may be preferable to prepare a more readily soluble form of a compound. A possible way to increase the water solubility of a compound is to generate its hydrochloride. The compound is suspended in dest. H2O and a 25 % HCl-solution is added until the solid is completely dissolved. Next, 1 M Tris-HCl-buffer is added to bring the solution to pH 7.4. This procedure yields usually good results. However, in some cases the compound may not be soluble or may precipitate when the pH of the solution elevated to bring it close to neutral pH. In this case, an alternative procedure is provided. The compound is suspended in diethyl ether and dichloromethane is added until the solid is completely dissolved. Then hydrochloric acid is added and all of the solvents are removed under reduced pressure and dried on high vacuum. The resulting colourless oil is water soluble. This procedure was followed with Atglistatin (compound 4) where NMR confirmed the structure of Atglistatin hydrochloride. The water soluble inhibitor may be injected in mice and its impact on the release of free fatty acids (FFA) and glycerol, measured.

[2] = Injection of the water soluble inhibitor in mice, release of FFA and glycerol; assay type: in vivo
Protocol: as §1
Atglistatin (compound 4) was administrated orally by gavage in olive oil (200 µl) or by IP injection. For IP administration, the hydrochloride was generated by the addition of 25% HCl resulting in a water soluble compound. […]

recombinant ATGL = biological target: T1, recombinant ATGL (Mus musculus, UniProt Q8BJ56); assay: TG hydrolase activity of E. coli lysates overexpressing recombinant strep-tagged ATGL and CGI-58, radiolabeled triolein substrate; assay type: biochemical; conditions: inhibition of the activity of recombinant ATGL
T1 construct: Strep-tag; made in house; host or cells: E. coli (XL-1), vector pASK-IBA5+; crude lysate supernatant, not purified
T1 sequence (Q8BJ56 1-486): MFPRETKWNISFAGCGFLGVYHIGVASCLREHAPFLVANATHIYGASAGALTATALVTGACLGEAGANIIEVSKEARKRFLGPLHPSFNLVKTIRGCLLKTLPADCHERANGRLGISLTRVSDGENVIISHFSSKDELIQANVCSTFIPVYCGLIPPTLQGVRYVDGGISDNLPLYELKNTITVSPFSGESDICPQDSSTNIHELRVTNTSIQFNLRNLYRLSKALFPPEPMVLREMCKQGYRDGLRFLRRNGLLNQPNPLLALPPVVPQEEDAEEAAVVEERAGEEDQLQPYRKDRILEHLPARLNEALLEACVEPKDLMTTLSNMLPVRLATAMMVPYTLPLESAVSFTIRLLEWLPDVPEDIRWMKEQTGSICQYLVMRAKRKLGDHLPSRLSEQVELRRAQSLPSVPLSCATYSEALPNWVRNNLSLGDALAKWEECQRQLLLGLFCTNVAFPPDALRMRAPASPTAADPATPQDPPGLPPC
Protocol: • Figure 1. Structure of compounds 1 to 3 (reference) and compound 4 (atglistatin) and effect on ATGL activity. For determination of lipase activity, lysates of E. coli overexpressing recombinant strep-tagged ATGL and CGI-58 were incubated with a substrate containing radiolabeled [9,10-3H(N)]-triolein. Subsequently, FA were extracted and quantified by liquid scintillation counting. Lysates of cells expressing empty vector were set as blank. Inhibitors were solubilized in DMSO and added at the indicated concentrations. DMSO alone was used as negative control. (A) Structure and IC50 values of compounds 1-4. (B) Dose-dependent inhibition of ATGL in the presence of compound 3 and 4. […] (C) Lineweaver-Burk plots for kinetic analysis of ATGL inhibition. Experiments were performed at varying concentrations of substrate (0.05 - 3 mM) in presence and absence of compound 4 (Atglistatin). […] Data are presented as mean +/-S.D. of triplicate determinations. Data for compound 4 are representative for at least three independent experiments. • Figure 2. Selectivity of Atglistatin. Lipase activity of ATGL, HSL, lipoprotein lipase, and pancreatic lipase was determined using triolein as substrate. MGL activity was detected in the presence of rac-(1,3)-monooleoylglycerol as substrate. Inhibitors were solubilized in DMSO and added at the indicated concentrations. DMSO alone was used as negative control. (A) Dose-dependent inhibition of TG hydrolase activity in WAT lysates obtained from wild-type and ATGL-ko mice. (B) Inhibition of TG hydrolase activity in wild-type WAT lysates by Atglistatin (40 µM) and by the HSL inhibitor Hi 76-0079 (20 µM). (C) Effect of Atglistatin on murine MGL (purified from E. coli), and murine HSL (overexpressed in COS-7 lysates) activity. (D) Effect of Atglistatin on purified bovine LPL (Sigma) and pancreatic lipase (from porcine pancreas, Sigma). Data are presented as mean +/- S.D. of triplicate determinations and are representative for at least three independent experiments (p < 0.05 **, p < 0.01; ***, p < 0.001). • Figure 3 Inhibition of lipolysis in 3T3-L1 adipocytes and WAT organ cultures. (A,B) Differentiated 3T3 cells were preincubated with the indicated concentrations of Atglistatin. Thereafter, the medium was replaced by DMEM containing 2% BSA (fatty acid free), 10 µM forskolin, in the presence or absence of inhibitors. The release of FA (A) and glycerol (B) in the media was determined using commercial kits. Basal FA and glycerol release (not shown) was barely detectable under the applied conditions. Data are presented as mean +/- SD and are representative for 2 independent experiments. (C-F) Effect of Atglistatin on WAT basal (C, D) and forskolin-stimulated (E, F) lipolysis. Adipose tissue pieces (∼15 mg, n=5 for each concentration) of wild-type mice were cultured for 8 h in DMEM containing 2 % FA-free BSA and the indicated concentrations of Atglistatin. Subsequently, the medium was replaced by identical fresh medium and samples were collected after incubation for another hour in the presence or in the absence of 10 µM forskolin. Atglistatin was solubilized in DMSO and DMSO alone was used as negative control. Data are presented as mean +/- S.D. (*, p < 0.05 **, p < 0.01; ***, p < 0.001). • Figure 4 Inhibition of lipolysis in vivo. […] At the indicated timepoints blood was taken retroorbitally and plasma parameters were measured using commercial kits. […] 8 h after gavage blood was taken retroorbitally and plasma parameters were measured using commercial kits. […]

[3] = In vitro toxicity tests (not specified further); assay type: cell-based

Compound | IC50 (recombinant ATGL) [µM] | toxicity in in vitro tests [3] | further results
O=C1O/C(=C/Br)CC[C@@H]1c1cccc2ccccc12 [(R)-Bromoenol lactone] | – | – | ATGL inhibitory activity (ATGL): has been demonstrated
CN(C)C(=O)Nc1cccc(-c2ccc(N(C)C)cc2)c1 [Atglistatin hydrochloride] | – | – | water solubility [1]: water soluble; release of free fatty acids (FFA) and glycerol after injection [2]: reduction in the release of free fatty acids (FFA) and glycerol
CCOC(=O)c1ccn(-c2ccc(OCC)cc2)n1 [Compound 2, Ethyl 1-(4-ethoxyphenyl)-1H-pyrazole-3-carboxylate, reference compound] | 40 | some limited toxicity | –
CCOC(=O)c1cccc(-c2ccc(OCC)cc2)c1 [Compound 3, Ethyl 4'-ethoxybiphenyl-3-carboxylate, reference compound] | 12 | – | –
CCOC(=O)c1nn(-c2ccc(OCC)cc2)cc1O [Compound 1, Ethyl 1-(4-ethoxyphenyl)-4-hydroxy-1H-pyrazole-3-carboxylate] | – | some limited toxicity | –

— patent EP2948433B1, “ATGLISTATIN AS LIPASE INHIBITOR” (Technische Universität Graz, priority 2013, dated 2014)
